Experimental data taken from the supplement of paper PMC12370961.

Legend:
Assay in all cases: differential drug sensitivity score (dDSS) relative to sarcoma reference cohort mean DSS (DSS units (0-100 scale difference)); higher = more selective sensitivity than reference sarcomas
Settings in all cases: exposure time: 72 h; concentration range: 10-10000 nM
CDS-ZH001-2 = tested on: CDS-ZH001-2 (patient-derived CIC-DUX4 sarcoma tumoroid)
Method: (§1)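 Drug response profiling of patient-derived Ewing sarcoma and CIC::DUX4 sarcoma tumoroid models (or cells tested directly after isolation from the tumor, 'direct'). The DSS is the normalised AUC (0-100); dDSS is the sample DSS minus the mean DSS of a 34-sarcoma reference cohort profiled in the same lab.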

CDS-ZH001 = tested on: CDS-ZH001 (patient-derived CIC-DUX4 sarcoma tumoroid)
Method: as §1

CDS-ZH002 direct = tested on: CDS-ZH002 direct (CIC-DUX4 sarcoma cells right after isolation)
Method: as §1

CDS-ZH002 = tested on: CDS-ZH002 (patient-derived CIC-DUX4 sarcoma tumoroid)
Method: as §1

CDS-ZH003 = tested on: CDS-ZH003 (patient-derived CIC-DUX4 sarcoma tumoroid)
Method: as §1

ES-ZH001 = tested on: ES-ZH001 (patient-derived Ewing sarcoma tumoroid)
Method: as §1

ES-ZH002 = tested on: ES-ZH002 (patient-derived Ewing sarcoma tumoroid)
Method: as §1

ES-ZH004 = tested on: ES-ZH004 (patient-derived Ewing sarcoma tumoroid)
Method: as §1

ES-ZH007 = tested on: ES-ZH007 (patient-derived Ewing sarcoma tumoroid)
Method: as §1

ES-ZH008 = tested on: ES-ZH008 (patient-derived Ewing sarcoma tumoroid)
Method: as §1

ES-ZH009 = tested on: ES-ZH009 (patient-derived Ewing sarcoma tumoroid)
Method: as §1

ES-ZH016 direct = tested on: ES-ZH016 direct (Ewing sarcoma cells right after isolation)
Method: as §1

ES-ZH016 = tested on: ES-ZH016 (patient-derived Ewing sarcoma tumoroid)
Method: as §1

Row | SMILES | differential drug sensitivity score (CDS-ZH001-2) | differential drug sensitivity score (CDS-ZH001) | differential drug sensitivity score (CDS-ZH002 direct) | differential drug sensitivity score (CDS-ZH002) | differential drug sensitivity score (CDS-ZH003) | differential drug sensitivity score (ES-ZH001) | differential drug sensitivity score (ES-ZH002) | differential drug sensitivity score (ES-ZH004) | differential drug sensitivity score (ES-ZH007) | differential drug sensitivity score (ES-ZH008) | differential drug sensitivity score (ES-ZH009) | differential drug sensitivity score (ES-ZH016 direct) | differential drug sensitivity score (ES-ZH016)
1 | CS(=O)(=O)OCCCCOS(C)(=O)=O [Busulfan] | -0.8 | -1.2 | -1.2 | -1.2 | -1.2 | 3.9 | 5.9 | 2.9 | -1.2 | -0.1 | -1.2 | 6.4 | -1.1
2 | CN(C)C/C=C/C(=O)Nc1cc2c(Nc3ccc(F)c(Cl)c3)ncnc2cc1O[C@H]1CCOC1 [Afatinib] | -3.4 | -4.6 | -4.7 | -4.9 | -4.9 | -3.9 | -2 | -0.3 | -4.2 | -1.4 | -3 | -2.4 | -4.6
3 | Cn1ncc(Cl)c1-c1cc(C(=O)N[C@H](CN)Cc2cccc(F)c2)sc1Cl [Afuresertib] | 0.3 | 2.8 | -5.5 | -4.7 | 1.1 | -4.1 | 5.8 | 4.1 | 2.4 | 4.6 | 3.6 | -3.4 | -0.3
4 | COc1cc(N2CCC(N3CCN(C)CC3)CC2)ccc1Nc1ncc(Cl)c(Nc2ccccc2P(C)(C)=O)n1 [Brigatinib] | 7.6 | 3.4 | -0.2 | -4.2 | 2 | -0.4 | 9 | -3 | 1.9 | 4.1 | 2.5 | 0.4 | 1.9
5 | O=P1(N(CCCl)CCCl)NCCCO1 (stereo unspecified) [Cyclophosphamide] | -0.3 | 1.7 | -0.3 | -0.3 | -0.3 | -0.3 | 3.8 | -0.3 | -0.3 | -0.3 | -0.3 | -0.3 | -0.3
6 | CC(C)(C)c1nc(-c2cccc(NS(=O)(=O)c3c(F)cccc3F)c2F)c(-c2ccnc(N)n2)s1 [Dabrafenib] | -1.2 | -1.2 | -1.2 | -1.2 | -1.2 | 11.1 | 7.7 | -0.7 | -1.1 | 0.8 | 3.9 | 2.3 | -1.2
7 | CC(=O)O[C@H]1C(=O)[C@@]2(C)[C@H]([C@H](OC(=O)c3ccccc3)[C@]3(O)C[C@H](OC(=O)[C@H](O)[C@@H](NC(=O)c4ccccc4)c4ccccc4)C(C)=C1C3(C)C)[C@]1(OC(C)=O)CO[C@@H]1C[C@@H]2O [Paclitaxel] | 4.1 | 7.6 | -5.6 | -2.2 | -8 | 24.6 | 23 | 8.9 | 16.2 | 15.7 | 19.6 | 14 | 16.3
